Measurements as given in patent US20260207600A1, “METHODS OF TREATMENT WITH MYOSIN MODULATOR” (MYOKARDIA, INC., priority 2019, published 2026).

Legend:
anaesthetized rats = experiment: Counteraction of mavacamten effects by dobutamine in anaesthetized rats; type: in vivo, rat
Text: Additional supportive measures, e.g., intravenous volume supplementation and/or the use of arterial vasoconstrictor agents (a adrenergic agonists) may complement the use of a β adrenergic agonist.

[1] = system: conscious Sprague-Dawley rats; experiment: Positive inotropic challenge (dobutamine, levosimendan) after supra-therapeutic mavacamten, echocardiography; type: in vivo, rat; conditions: supra-therapeutic dose, healthy rats
Description: Methods: The responsiveness of mavacamten-induced cardio-depression to positive inotropic challenges was assessed in a set of conscious Sprague-Dawley rats. In these animals, functional reserve was assessed via either dobutamine (+DOB, 10 μg/kg/min IV for 10 min, n=7) or levosimendan (+LEVO, 0.3 μmol/kg IV over […]; n=6) challenges given 3 hrs following a single-dose administration of MAVA (at 4 mg/kg, PO). Cardiac function/geometry were recorded and compared at three separate time-points/days: prior to dosing (i.e., at baseline) and at 3 hrs post-dosing both before as well as during the inotropic challenge; in order to account for the levosimendan-induced changes in loading conditions, an additional echocardiographic examination was performed following acute preload-restoration in LEVO-treated rats (+LEVO/F, 0.9% NaCl at 30 mL/kg/hr IV).
In these experiments, left-ventricular fractional shortening (FS), an index of systolic performance, as well as LV dimensions/volumes and heart rates were measured using a high-frequency transducer and parasternal long-axis transthoracic views (Vevo2100, VisualSonic). FS was defined as the end-diastole normalized change in internal dimensions/diameter of the left ventricle between end-systole (LVESd) and end-diastole (LVEDd) (i.e., FS=100·[LVEDd−LVESd]/LVEDd). LV volumes were derived assuming a Teichholz model (LVV=7·[2.4+LVid]−1·LVid3).

[2] = system: conscious fully-instrumented dogs with normal cardiac function; experiment: Acute β-AR (dobutamine) challenge after mavacamten in conscious instrumented dogs; type: in vivo, dog
Description: In addition, the effects of MAVA (at 1.5 mg/kg PO, via gavage) on cardiac reserve were evaluated via acute β-AR challenges (dobutamime: 2, 5, and 10 ug/kg/min IV) in conscious fully-instrumented (LVPV group) dogs with normal cardiac function (n=8). These challenges were performed before/after dosing (+3-hour) in control- and MAVA-treated animals both under normal cardiac physiological conditions (n=4) and under (mild) concomitant cardio-depression induced via either selective β-AR blockade (+BB, metoprolol 0.5±0.1 mg/kg PO tid; n=4) or L-type Ca2+-channel blockade (+CCB, verapamil at 5±1 mg/kg PO tid; n=4); pharmacological blockades were established for 7 days prior to the MAVA treatment. Both peak and dose-responses were evaluated at steady state.
Throughout these experiments, analog signals were digitally acquired (1000 Hz) and recorded continuously with a data acquisition/analysis system (IOX; EMKA Technologies). Heart rate (HR), end-systolic (ESP) and end-diastolic pressures (EDP), as well as the peak rates of pressure rise/decline (dP/dtmax and dP/dtmin), the contractility index (CI: dP/dt/P at dP/dtmax), and the time-constant of myocardial relaxation (tau½, time for 50% decay from dP/dtmin) were derived from the LV pressure signal. Meanwhile, the end-systolic (ESV) and end-diastolic volumes (EDV) were measured from the LV volume signal derived from the implanted myocardial crystals. LV volumes were derived assuming a Teichholz model, and stroke volume (SV=EDV−ESV), ejection fraction (EF=SV/EDV), as well as cardiac output (CO=SV·HR) were calculated; in a subset of animals, SV and CO values were verified from data derived from the implanted aortic flow proble. […] The slopes of the preload-recruitable stroke work (PRSW; stroke work vs. EDV) and the end-systolic pressure-volume relationships (ESPVR; end-systolic elastance, Ees) were derived by software using linear models (IOX; EMKA Technologies), and were used as load-independent inotropic indices. Ventricular load was estimated by the effective arterial elastance (Ea=ESP/SV). […]

CYP2J2 = molecular target: T1, CYP2J2 (Homo sapiens, UniProt P51589); experiment: In vitro contribution of CYP enzymes to mavacamten metabolism; type: in vitro ADME
T1 sequence (P51589 1-502): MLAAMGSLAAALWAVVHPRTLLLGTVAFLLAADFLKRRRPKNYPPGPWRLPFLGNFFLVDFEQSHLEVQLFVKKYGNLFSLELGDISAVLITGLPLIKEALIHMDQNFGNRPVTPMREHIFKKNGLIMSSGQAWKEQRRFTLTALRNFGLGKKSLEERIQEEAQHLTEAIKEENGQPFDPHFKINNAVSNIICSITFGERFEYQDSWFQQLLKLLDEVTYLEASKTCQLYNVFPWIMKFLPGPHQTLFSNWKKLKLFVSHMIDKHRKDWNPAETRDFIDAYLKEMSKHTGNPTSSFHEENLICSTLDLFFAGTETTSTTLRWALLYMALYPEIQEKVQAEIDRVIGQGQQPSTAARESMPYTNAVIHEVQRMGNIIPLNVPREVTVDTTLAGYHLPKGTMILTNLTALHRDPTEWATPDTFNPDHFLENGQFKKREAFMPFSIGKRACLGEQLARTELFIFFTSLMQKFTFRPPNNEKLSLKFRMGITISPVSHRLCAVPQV

CC(C)n1c(=O)cc(N[C@@H](C)c2ccccc2)[nH]c1=O [mavacamten, (S)-3-Isopropyl-6-((1-phenylethyl)amino)pyrimidine-2, 4(1H,3H)-dione]
Reversal of pharmacologic effects by β adrenergic agonist (anaesthetized rats): can be counteracted by β adrenergic agonists
reduction in ejection fraction [1]: ~50%
β-AR induced acceleration of tau ([2]; at any given dP/dtmax gain): enhanced the β-AR induced acceleration of tau
dobutamine-triggered stroke-volume/cardiac output recruitments ([2]; before (control) vs under acute mavacamten treatment): comparable stroke-volume/cardiac output recruitments
β-AR elevations in dP/dtmax and CI ([2]; dobutamine challenge): blunted β-AR elevations in dP/dtmax and CI
percent contribution to the metabolism of mavacamten (CYP2J2): negligible
